Measured values published in ChEMBL document CHEMBL1139043, “Carbonic anhydrase inhibitors. Inhibition studies of the human secretory isoform VI with anions” (Bioorg Med Chem Lett, 2007).

Biological target: Carbonic anhydrase 6 (Homo sapiens) (UniProt P23280)
Sequence (P23280 whole entry): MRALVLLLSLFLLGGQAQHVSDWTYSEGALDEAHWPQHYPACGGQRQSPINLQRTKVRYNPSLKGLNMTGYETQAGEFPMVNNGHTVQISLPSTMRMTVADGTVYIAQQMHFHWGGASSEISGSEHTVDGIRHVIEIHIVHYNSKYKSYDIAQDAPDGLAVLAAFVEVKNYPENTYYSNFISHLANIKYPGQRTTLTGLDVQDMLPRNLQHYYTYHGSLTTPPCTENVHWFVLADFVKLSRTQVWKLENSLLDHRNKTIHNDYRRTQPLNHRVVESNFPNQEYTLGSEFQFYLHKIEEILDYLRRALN
Description: Inhibition of full length human recombinant full length CA6 expressed in Escherichia coli BL21 by CO2 hydration method

Row | Compound | Kinact [mM]
1 | NS(=O)(=O)O | 0.09
2 | O=[As](O)(O)c1ccccc1 | 13.9
